The results in this text go back to ChEMBL document CHEMBL1127465, “Rational design, synthesis, and crystallographic analysis of a hydroxyethylene-based HIV-1 protease inhibitor containing a heterocyclic P1'--P2' amide bond isostere” (J Med Chem, 1994).

This experiment concerns the target Human immunodeficiency virus type 1 protease (Human immunodeficiency virus 1, UniProt Q72874). Put plainly: Apparent inhibition constant against recombinant HIV-1 protease.
Take `CC(=O)c1c[nH]c([C@H](Cc2ccccc2)C[C@H](O)[C@H](Cc2ccccc2)NC(=O)OC(C)(C)C)n1`: the Ki turned out to be 370 nM.

As to `CC(C)C(O)c1cnc([C@H](Cc2ccccc2)C[C@H](O)[C@H](Cc2ccccc2)NC(=O)OC(C)(C)C)[nH]1` (stereo not given in full), the Ki amounted to 2700 nM.

`CC(C)(C)OC(=O)N[C@@H](Cc1ccccc1)[C@@H](O)C[C@@H](Cc1ccccc1)c1nc(C=O)c[nH]1`: the Ki was 3500 nM.

For `CC(C)(C)OC(=O)N[C@@H](Cc1ccccc1)C(=O)C(O)CN[C@@H](Cc1ccccc1)C(=O)NCC(N)=O` (stereo not given in full), the Ki turned out to be 120 nM.

For `CC(C)C(=O)c1cnc([C@H](Cc2ccccc2)C[C@H](O)[C@H](Cc2ccccc2)NC(=O)OC(C)(C)C)[nH]1`, the Ki was determined as 83 nM.

In the case of `C=CC(C)(C)C(=O)c1cnc([C@H](Cc2ccccc2)C[C@H](O)[C@H](Cc2ccccc2)NC(=O)OC(C)(C)C)[nH]1`, the Ki was determined as 270 nM.

With `CC(C)[C@@H](NC(=O)[C@@H](Cc1ccccc1)NCC(O)C(=O)[C@H](Cc1ccccc1)NC(=O)[C@H](C)NC(=O)OCc1ccccc1)C(=O)O` (stereo not given in full), the Ki was determined as 0.7 nM.

In the case of `CCCC(=O)c1c[nH]c([C@H](Cc2ccccc2)C[C@H](O)[C@H](Cc2ccccc2)NC(=O)OC(C)(C)C)n1`, the Ki was 150 nM.

Regarding `CC(O)c1cnc([C@H](Cc2ccccc2)C[C@H](O)[C@H](Cc2ccccc2)NC(=O)OC(C)(C)C)[nH]1` (stereo not given in full), the Ki amounted to 13300 nM.

Take `CCC(=O)c1cnc([C@H](Cc2ccccc2)C[C@H](O)[C@H](Cc2ccccc2)NC(=O)OC(C)(C)C)[nH]1`: the Ki was 92 nM.
